Entries after “also recorded” stand apart in the source; their conditions may differ. No end group written: not given here.
How the values were obtained:
[1] = system: cap-dependent translation (eIF4E-dependent); experiment: Effect of the peptides on translation of capped luciferase mRNA in rabbit reticulocyte lysate; assay type: biochemical; conditions: 50 μM peptide, compared with DMSO = 100%, FIG. 2
Description: The peptides having the IRS motif and the sequences of 4EBPlike type (A1WT, BPSgWT, and BP2WT) or the mutant sequences of 4EPBlike type (A1YALA, BPSgYALA, BP2YALA) are incubated in rabbit reticulocyte lysate containing capped mRNAs encoding luciferase, an enzyme of which the activity can be easily assayed. The translational activity is directly proportional to the activity of the luciferase produced. The translational activity in the presence of peptide is compared with that obtained during the addition of an equivalent volume of DMSO, considered to be 100%.
The peptides were produced, purified by HPLC (purity>95%), and freeze-dried by Thermofisher Scientific. The peptides were then dissolved at 10 mM in DMSO.
The capped mRNAs encoding Renilla luciferase (Luc R) were produced by the T7 Message Machine Kit system (Ambion) from the pGb-Eg2-410Δ2-hxG-A65 plasmid linearized with EcoRV (Legagneux V, Omilli F, Osborne HB (1995) Substrate-specific regulation of RNA deadenylation in Xenopus embryo and activated egg extracts. RNA 1: 1001-1008).
The Luc R mRNAs were translated for one hour at 30° C. in rabbit reticulocyte lysate (Flexi Rabbit Reticulocyte Lysate System, Promega) in the presence of 50 μM of peptide. The luciferase activity was determined using the Renilla luciferase assay (Promega) on the Tristar LB941 luminometer (Berthold).
A capped mRNA (having a cap at the 5′ end) encoding luciferase, a protein which can be easily assayed by measuring its activity, was translated in the presence of these various peptides in rabbit reticulocyte lysate (FIG. 2). The luciferase activity measured is directly proportional to the amount of luciferase protein produced and therefore to the cap-dependent translational activity. Since the peptides are dissolved in DMSO, it was important to test the effect of DMSO on the translation. […] The translational activity in the presence of peptide was compared with that obtained when an equal volume of DMSO is added, considered to be equal to 100%.

[2] = system: Jok cells (cell line derived from B lymphocytes); experiment: Cell survival of Jok cells, annexin/propidium iodide flow cytometry; assay type: cell-based, human; conditions: for cell effect Jok 20 (survival): 20 μM peptide; for cell effect Jok 20 (survival) / cell effect Jok 40 (survival): 4 hours of culture, cells not labeled with annexin or propidium iodide; for cell effect Jok 40 (survival): 40 μM peptide
Description: The cells are treated as indicated for FIG. 7, with the CLL cells, control T lymphocytes and Jok lymphocytes, which are incubated with the A1 WT IRS peptide and derivatives thereof described in table 1. The Jok cells were incubated either with 20 μM (JOK 20) or with 40 μM (JOK 40) of each of the peptides. In the interests of simplifying the legend, the A1 WT IRS peptide is referred to as “WT”. Likewise, the derivatives thereof are referred to by the name of the mutations (A1 K3I IRS is referred to as “K3I”, for example).
(§1) The cells were cultured in a culture medium composed either of RPMI 1640 (B lymphocytes) or of DMEM (COS7, HCT116, HGT1, 293, HeLa) containing 10% of FCS (fetal calf serum, 1% of penicillin-streptomycin and 1% of glutamine, Gibco BRL). The cells are distributed in a 24-well plate and cultured at 37° C. in a humid atmosphere under 5% CO2.
(§2) 400 μl of cell suspension (1×10^6 cells/ml) per well were treated for 4 h or 24 h with various concentrations of peptides. The test for activity of the peptides in the presence of emetine (FIG. 6) was carried out by preincubating the cells with 100 μM of emetine for one hour before the addition of peptide.
(§3) After the cells have been washed with PBS, they were analyzed using the Annexin V-FITC IP system according to the supplier's recommendations (Beckman Coulter).
The peptides were tested on B lymphocytes from patients suffering from chronic lymphoid leukemia, control T lymphocytes, or Jok cells (cell line derived from B lymphocytes). The experiment was repeated three times for each type of cell tested.

[3] = system: B lymphocytes from patients suffering from chronic lymphoid leukemia (CLL); conditions: for effect on percentage cell survival / cell effect CLL 40 (survival): 40 μM peptide; for effect on percentage cell survival: 4 H and 24 H, FIG. 3; for cell effect CLL 40 (survival): 4 hours of culture, cells not labeled with annexin or propidium iodide; for action of the peptide on cell survival, in words, cell type not given: Example 6 (CLL cells, control T lymphocytes, Jok cells)
Description: Peripheral blood B lymphocytes taken from patients suffering from CLL and then purified on a Ficoll cushion and placed in culture are incubated in the presence of […] of the peptides described for FIG. 2. The percentage cell survival after 4 hours (gray column) or 24 hours (white column) of culture corresponds to the percentage of cells labeled neither with annexin nor with propidium iodide, evaluated by flow cytometry.
The CLL B lymphocytes were obtained from peripheral blood of 18 different patients suffering from chronic lymphoid leukemia. […] The samples were taken in the Brest hospital center, in the hematology department. The blood samples were taken after informing the patients and obtaining their informed consent.
The lymphocytes, mononuclear cells, were isolated from the heparinized peripheral blood samples by Ficoll-Hypaque (LSM 1077 lymphocyte, euro-bio) centrifugation. The red blood cells were lyzed by incubation for 10 min in VersaLyse Lysing Solution (Beckman Coulter). The mononuclear cells are obtained after 2 washes in culture medium (RPMI1640, Gibco BRL).
as §1, §2, §3
The cells taken from patients suffering from chronic lymphoid leukemia were purified on a Ficoll cushion. […] The cells were placed in culture in RPMI medium in the presence of 10% FCS (fetal calf serum). The peptides were added directly to the culture medium. These peptides comprise the IRS sequence (the amino acid sequence of which is RYIRS) which is known to allow the penetration of peptides into B lymphocytes in culture (Dong et al., 2005). […] The cells which survive the treatment are those which are labeled neither with annexin nor with propidium iodide.

[4] = system: control T lymphocytes (patients suffering from hemochromatosis); experiment: Cell survival of control T lymphocytes, annexin/propidium iodide flow cytometry; assay type: cell-based, human; conditions: 40 μM peptide, 4 hours of culture, cells not labeled with annexin or propidium iodide
Description: FIG. 7: Activity of the A1WT peptide on cells of lymphocytic, lymphoid, gastric, colonic or renal origin The cells are prepared and placed in culture (see Materials and Methods) and then incubated for 4 H with the A1WT or A1 YALA peptide. The percentage cell survival corresponds to the percentage of cells labeled neither with annexin nor with propidium iodide, evaluated by flow cytometry. The names of the pathological conditions from which the patients from whom the samples are taken are suffering are indicated under the figure. The control T (L.T.) and B (L.B.) lymphocytes are taken from patients suffering from a disease not related to a lymphocytic pathological condition (hemochromatosis).
The control B lymphocytes and T lymphocytes originate from peripheral blood samples from patients suffering from hemochromatosis, provided by the CTS transfusion center in Brest. The B and T lymphocytes were isolated using the Rosett-Sep kit (Stemcell Technologies) according to the supplier's recommendations.
as §1, §2, §3

eIF4E = biological target: T1, eIF4E (Mus musculus, UniProt P63073); experiment: Test for interaction of YFP-fused peptide sequences with eIF4E (GST-eIF4E beads, affinity chromatography); assay type: binding; conditions: 35S Met-labeled YFP fusion produced in rabbit reticulocyte lysate; SDS-PAGE, autoradiography; FIG. 1
T1 construct: made in house; host or cells: E. coli BL21DE3 (Novagen), pGEX-4T-1 vector
Source text: The eIF4E protein fused to glutathione-S-transferase (GST-eIF4E) or GST alone (GST), used as a control, are produced in bacteria, purified and immobilized on glutathione beads. The YFP, YFP-A1 WT and YFP-A1 YALA proteins were produced in rabbit reticulocyte lysate in the presence of 35S methionine and chromatographed on the GST-eIF4 or GST beads. The proteins retained on the beads are eluted and analyzed by SDS-PAGE followed by autoradiography.
The plasmids encoding the YFP protein-peptides were obtained by amplification of the reading frame of the YFP protein (enhanced yellow-green variant of the Aequorea victoria green fluorescent protein) from the pEYFP-C1 plasmid (Clontech). The 5′ primer used (sequence described below) made it possible to insert a T7 promoter (underlined sequence) upstream of the reading frame of YFP. […] The pGEX 4E plasmid was obtained by inserting the reading frame of the mouse eIF4E protein at the BamHI/EcoRI sites of the PGEX-4T-1 vector (Amersham pharmacia biotech). […] After washing, the proteins were eluted with SDS loading buffer, and analyzed, after an SDS-PAGE gel, by autoradiography (Typhoon Phospholmager, Amersham Pharmacia Biotech).
Biochemical validation of the peptides identified was then carried out by means of affinity chromatography approaches. […] The ability of these peptides to interact with eIF4E was then analyzed by affinity chromatography. […]

T1 sequence (P63073 whole entry, the tested form may be a part): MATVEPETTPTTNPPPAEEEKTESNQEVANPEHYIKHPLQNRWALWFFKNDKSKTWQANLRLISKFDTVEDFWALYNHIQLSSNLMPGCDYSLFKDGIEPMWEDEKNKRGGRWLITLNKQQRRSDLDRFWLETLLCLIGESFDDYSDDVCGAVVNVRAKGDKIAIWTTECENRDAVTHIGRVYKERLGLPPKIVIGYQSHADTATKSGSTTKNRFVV

Substance | inhibition of translation (luciferase activity) [1] | cell effect Jok 20 (survival) [2] | cell effect Jok 40 (survival) [2] | effect of the peptide on cell mortality, in words (relative to A1 WT IRS) ([2]; concentration not given (20 or 40 μM), 4 hours, FIG. 9) | inhibition of translation (luciferase activity) ([1]; listed as BP2) | effect on percentage cell survival [3] | cell effect CLL 40 (survival) [3] | effect of the peptide on cell mortality, in words (relative to A1 WT IRS) ([3]; 40 μM, 4 hours, FIG. 9) | action of the peptide on cell survival, in words, cell type not given [3] | cell effect LT 40 (survival) [4] | interaction with eIF4E (retention on GST-eIF4E beads) (eIF4E)
RIIADRKFAADRRYIRS [BP2 YALA IRS, YALA mutant control of BP2 WT IRS] | does not cause any inhibition of the translation |  |  |  |  |  |  |  |  |  | 
RIIYDRKFLLDRRYIRS [BP2 WT IRS, reference compound] | strong inhibition of the translation | − (−: survival >50%) | − (−: survival >50%) | has no effect | effectively inhibits eIF4E-dependent translation | the percentage survival did not decrease | − (−: survival >50%) | has no effect | has no effect on cell survival |  | 
RRKAGRDFAARFRYIRS [A1 YALA IRS, reference compound] | does not inhibit the translation | − (−: survival >50%) | − (−: survival >50%) |  |  | has no effect | − (−: survival >50%) |  | has no effect | − (−: survival >50%) | 
YFP-A1 WT: YFP, yellow fluorescent protein, fused to a peptide derived from the human Angel 1 protein, of sequence RRKYGRDFLLRF (SEQ ID No. 3) (also: fused to YFP) |  |  |  |  |  |  |  |  |  |  | associates more strongly with eIF4E than the other peptides tested; also recorded: is retained on GST-eIF4E beads

Source: patent US9745357B2, “Peptides used for treating cancers and, in particular, chronic lymphoid leukaemia” (Centre National de la Recherche Scientifique, priority 2009, dated 2017)
